Test results as given in patent publication US8722123B2, “Antimicrobial composition and use as food treatment” (priority 2008, dated 2014).
Values joined by “and” are separate entries in the source; they are usually repeats but may differ in a detail not shown here. Equal entries are not always repeated. Where two headings read alike, the source gives them in different places.

How the values were obtained:
S. enteritidis = type: cell-based, Salmonella enteritidis
L. monocytogenes = type: cell-based, Listeria monocytogenes
S. typhimurium DT 104 = type: cell-based, Salmonella typhimurium DT104
[1] = tested on: spores of Bacillus anthracis Sterne; type: cell-based, Bacillus anthracis Sterne (34F2)
[2] = tested on: Salmonella on whole chicken with feathers; test: Salmonella counts on whole chicken with feathers; type: cell-based; settings: whole chickens with feathers soaked in 72 L at 21° C. for 5 min, chickens 1-5

Compound	S. enteritidis counts at 0 min (S. enteritidis) [log CFU/ml]	S. enteritidis counts at 2 min (S. enteritidis) [log CFU/ml]	S. enteritidis counts at 5 min (S. enteritidis) [log CFU/ml]	S. enteritidis counts at 10 min (S. enteritidis) [log CFU/ml]	S. enteritidis counts at 20 min (S. enteritidis) [log CFU/ml]	S. enteritidis counts at 30 min (S. enteritidis) [log CFU/ml]	L. monocytogenes counts at 0 min (L. monocytogenes) [log CFU/ml]	L. monocytogenes counts at 2 min (L. monocytogenes) [log CFU/ml]	L. monocytogenes counts at 5 min (L. monocytogenes) [log CFU/ml]	L. monocytogenes counts at 10 min (L. monocytogenes) [log CFU/ml]	L. monocytogenes counts at 20 min (L. monocytogenes) [log CFU/ml]	L. monocytogenes counts at 30 min (L. monocytogenes) [log CFU/ml]	also measured
CC(=O)CCC(=O)O [1.0% levulinic acid (pH 2.9), levulinic acid]	6.9	6.7	6.8	6.9	6.9	6.7	6.8 ± 0.3	6.7 ± 0.2	6.6 ± 0.3	6.6 ± 0.3	6.6 ± 0.0	6.6 ± 0.3	–
CC(=O)CCC(=O)O [0.5% levulinic acid (pH 2.6), levulinic acid]	7.1	6.8	6.9	6.9	6.6	6.7	6.7 ± 0.2	6.7 ± 0.1	6.8 ± 0.3	6.9 ± 0.2	6.7 ± 0.2	6.8 ± 0.2	S. typhimurium DT 104 counts at 0 min (S. typhimurium DT 104): 6.8 log CFU/ml; S. typhimurium DT 104 counts at 1 min (S. typhimurium DT 104): 6.7 log CFU/ml; S. typhimurium DT 104 counts at 2 min (S. typhimurium DT 104): 6.6 log CFU/ml; S. typhimurium DT 104 counts at 5 min (S. typhimurium DT 104): 6.5 log CFU/ml; S. typhimurium DT 104 counts at 10 min (S. typhimurium DT 104): 6.7 log CFU/ml; S. typhimurium DT 104 counts at 20 min (S. typhimurium DT 104): 6.6 log CFU/ml; S. typhimurium DT 104 counts at 30 min (S. typhimurium DT 104): 6.4 log CFU/ml; S. typhimurium DT 104 counts at 60 min (S. typhimurium DT 104): 5.9 log CFU/ml
CC(=O)CCC(=O)O [2.0% levulinic acid (pH 2.8), levulinic acid]	6.7	6.7	6.7	6.8	6.5	6.0	6.8 ± 0.3	6.8 ± 0.2	6.9 ± 0.2	6.7 ± 0.2	6.9 ± 0.2	6.8 ± 0.2	–
CC(=O)CCC(=O)O [2.5% levulinic acid (pH 2.6), levulinic acid]	6.9	6.8	6.9	6.4	5.8	4.8	–	–	–	–	–	–	–
CC(=O)CCC(=O)O [3.0% levulinic acid (pH 2.7), levulinic acid]	6.6	6.8	6.5	6.2	5.1	3.8	–	–	–	–	–	–	CFU % recovery (as compared to control flask F), 0 min [1]: 89% and 70% and 75%; CFU % recovery (as compared to control flask F), 10 min [1]: 81%; CFU % recovery (as compared to control flask F), 45 min [1]: 55%; CFU % recovery (as compared to control flask F), 1 h [1]: 54% and 78% and 80% and 58%; CFU % recovery (as compared to control flask F), 90 min [1]: 64%; CFU % recovery (as compared to control flask F), 2 h [1]: 27% and 45% and 46% and 34%
CC(=O)O [0.5% acetic acid (pH 3.1), acetic acid]	7.1	7.0	6.8	6.7	6.6	6.5	–	–	–	–	–	–	–
CC(=O)CCC(=O)O [1.5% levulinic acid (pH 2.8), levulinic acid]	6.7	6.7	6.8	6.7	6.4	6.5	6.9 ± 0.1	6.9 ± 0.2	6.9 ± 0.3	6.9 ± 0.1	6.9 ± 0.3	6.8 ± 0.3	–
CCCCCCCCCCCCOS(=O)(=O)[O-].[Na+] [0.05% sodium dodecyl sulfate (pH 4.4), sodium dodecyl sulfate]	7.1	7.0	7.2	7.1	7.2	7.1	–	–	–	–	–	–	S. typhimurium DT 104 counts at 0 min (S. typhimurium DT 104): 7.0 log CFU/ml; S. typhimurium DT 104 counts at 1 min (S. typhimurium DT 104): 7.0 log CFU/ml; S. typhimurium DT 104 counts at 2 min (S. typhimurium DT 104): 6.8 log CFU/ml; S. typhimurium DT 104 counts at 5 min (S. typhimurium DT 104): 6.9 log CFU/ml; S. typhimurium DT 104 counts at 10 min (S. typhimurium DT 104): 6.8 log CFU/ml; S. typhimurium DT 104 counts at 20 min (S. typhimurium DT 104): 6.9 log CFU/ml; S. typhimurium DT 104 counts at 30 min (S. typhimurium DT 104): 6.9 log CFU/ml; S. typhimurium DT 104 counts at 60 min (S. typhimurium DT 104): 6.9 log CFU/ml; Salmonella reduction (S. enteritidis): did not reduce Salmonella cell numbers; L. monocytogenes counts at 0 min (L. monocytogenes; 21° C.): 6.6 ± 0.3 log CFU/ml; L. monocytogenes counts at 2 min (L. monocytogenes; 21° C.): 6.4 ± 0.1 log CFU/ml; L. monocytogenes counts at 5 min (L. monocytogenes; 21° C.): 6.0 ± 0.1 log CFU/ml; L. monocytogenes counts at 10 min (L. monocytogenes; 21° C.): 5.0 ± 0.3 log CFU/ml; L. monocytogenes counts at 20 min (L. monocytogenes; 21° C.): 3.8 ± 0.2 log CFU/ml; L. monocytogenes counts at 30 min (L. monocytogenes; 21° C.): 3.3 ± 0.1 log CFU/ml
CC(=O)CCC(=O)O [0.1% levulinic acid (pH 2.5), levulinic acid]	7.1	7.1	6.9	7.0	6.9	6.9	–	–	–	–	–	–	–
[Ca+2].[O-]Cl.[O-]Cl [50 ppm calcium hypochlorite]	–	–	–	–	–	–	–	–	–	–	–	–	Salmonella counts after treatment ([2]; left breast): 7.0 log CFU/9 cm^2 and 8.7 log CFU/9 cm^2 and 7.9 log CFU/9 cm^2 and 8.1 log CFU/9 cm^2; Salmonella counts after treatment ([2]; left wing): 7.6 log CFU/9 cm^2 and 8.0 log CFU/9 cm^2 and 8.1 log CFU/9 cm^2 and 8.8 log CFU/9 cm^2 and 8.5 log CFU/9 cm^2; Salmonella counts after treatment ([2]; neck): 7.9 log CFU/9 cm^2 and 8.9 log CFU/9 cm^2 and 8.5 log CFU/9 cm^2 and 8.1 log CFU/9 cm^2; Salmonella counts after treatment ([2]; right breast): 7.9 log CFU/9 cm^2 and 8.3 log CFU/9 cm^2 and 8.0 log CFU/9 cm^2 and 8.5 log CFU/9 cm^2 and 7.8 log CFU/9 cm^2; Salmonella counts after treatment ([2]; right wing): 8.4 log CFU/9 cm^2 and 8.0 log CFU/9 cm^2 and 7.6 log CFU/9 cm^2
CCCCCCCCCCCCOS(=O)(=O)[O-].[Na+] [E]	–	–	–	–	–	–	–	–	–	–	–	–	CFU % recovery (as compared to control flask F), 10 min [1]: 65%; CFU % recovery (as compared to control flask F), 45 min [1]: 94%; CFU % recovery (as compared to control flask F), 90 min [1]: 144%; CFU % recovery (as compared to control flask F), 2 h [1]: 87% and 74% and 103% and 53%; CFU % recovery (as compared to control flask F), 180 min [1]: 95%; CFU % recovery (as compared to control flask F), 3 h [1]: 98% and 68% and 113% and 71%; effectiveness versus water control F [1]: not more effective than the water control F; recovery levels over time [1]: did not decrease
